Measurements as given in patent publication US8802597B2, “Herbicidal pyrimidines” (E I du Pont de Nemours and Company, priority 2003, dated 2014).
Where two headings read alike, the source gives them in different places.

Tests used:
Test in all cases: Test C pre/postemergence
Assay type in all cases: in vivo
[1] = tested on: kochia (Kochia scoparia); conditions: Bassia scoparia, pre-emergence, Preemergence, read-out: Plant response rating, Kochia
In short: (§1)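 Test compounds, formulated in a non-phytotoxic solvent mix with surfactant, were applied to freshly planted seeds and, at the same time, to emerged plants at 1- to 4-leaf stage (2 to 18 cm). After 12 to 14 days in the greenhouse, response was scored visually versus controls, 0 = no effect, 100 = complete control.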

[2] = tested on: morningglory (Ipomoea coccinea); conditions: Ipomoea; for pest or weed control at 8 g/ha: 8 g ai/ha; for pest or weed control at 31 g/ha: 31 g ai/ha; for pest or weed control at 62 g/ha: 62 g ai/ha
In short: as §1

[3] = tested on: pigweed (Amaranthus retroflexus); conditions: Amaranthus retroflexus; for pest or weed control at 8 g/ha: 8 g ai/ha; for pest or weed control at 16 g/ha: 16 g ai/ha; for pest or weed control at 31 g/ha: 31 g ai/ha; for pest or weed control at 62 g/ha: 62 g ai/ha
In short: as §1

[4] = tested on: velvetleaf (Abutilon theophrasti); conditions: Abutilon theophrasti; for pest or weed control at 8 g/ha: 8 g ai/ha; for pest or weed control at 16 g/ha: 16 g ai/ha; for pest or weed control at 31 g/ha: 31 g ai/ha; for pest or weed control at 62 g/ha: 62 g ai/ha
In short: as §1

[5] = tested on: woolly cupgrass (Eriochloa villosa); conditions: Eriochloa villosa; for pest or weed control at 8 g/ha: 8 g ai/ha; for pest or weed control at 16 g/ha: 16 g ai/ha; for pest or weed control at 31 g/ha: 31 g ai/ha; for pest or weed control at 62 g/ha: 62 g ai/ha
In short: as §1

[6] = tested on: yellow nutsedge (Cyperus esculentus); conditions: Cyperus; for pest or weed control at 8 g/ha: 8 g ai/ha; for pest or weed control at 16 g/ha: 16 g ai/ha; for pest or weed control at 31 g/ha: 31 g ai/ha; for pest or weed control at 62 g/ha: 62 g ai/ha
In short: as §1

[7] = post-emergence, Postemergence, read-out: Plant response rating (scale of 0 to 100), Morningglory
[8] = pre-emergence, Preemergence, scale 0 to 100, 0 no effect, 100 complete control, read-out: Plant response rating, Morningglory
[9] = post-emergence, Postemergence, read-out: Plant response rating (scale of 0 to 100), Pigweed
[10] = pre-emergence, Preemergence, scale 0 to 100, 0 no effect, 100 complete control, read-out: Plant response rating, Pigweed
[11] = post-emergence, Postemergence, read-out: Plant response rating (scale of 0 to 100), Velvetleaf
[12] = pre-emergence, Preemergence, scale 0 to 100, 0 no effect, 100 complete control, read-out: Plant response rating, Velvetleaf
[13] = post-emergence, Postemergence, read-out: Plant response rating (scale of 0 to 100), Cupgrass, Woolly
[14] = pre-emergence, Preemergence, scale 0 to 100, 0 no effect, 100 complete control, read-out: Plant response rating, Cupgrass, Woolly
[15] = post-emergence, Postemergence, read-out: Plant response rating (scale of 0 to 100), Nutsedge, Yellow
[16] = pre-emergence, Preemergence, scale 0 to 100, 0 no effect, 100 complete control, read-out: Plant response rating, Nutsedge, Yellow

Nc1nc(-c2ccc(Br)cc2)nc(C(=O)O)c1Cl [Compound 95, 6-amino-2-(4-bromophenyl)-5-chloro-4-pyrimidinecarboxylic acid]
95%: pest or weed control at 62 g/ha [2, 7] | pest or weed control at 16 g/ha [3, 9] | pest or weed control at 8 g/ha ([4]; post-emergence, Postemergence, scale 0 to 100, read-out: Plant response rating, Velvetleaf) | pest or weed control at 16 g/ha [4, 11]
100%: pest or weed control at 31 g/ha [3, 9] | pest or weed control at 62 g/ha [3, 9] | pest or weed control at 31 g/ha [3, 10] | pest or weed control at 62 g/ha [3, 10] | pest or weed control at 31 g/ha [4, 11] | pest or weed control at 62 g/ha [4, 11]
90%: pest or weed control at 8 g/ha ([3]; post-emergence, Postemergence, scale 0 to 100, read-out: Plant response rating, Pigweed) | pest or weed control at 16 g/ha [3, 10] | pest or weed control at 62 g/ha [4, 12]
10%: pest or weed control at 31 g/ha [2, 8]
60%: pest or weed control at 8 g/ha ([2]; post-emergence, Postemergence, scale 0 to 100, read-out: Plant response rating, Morningglory) | pest or weed control at 62 g/ha [2, 8] | pest or weed control at 31 g/ha [4, 12] | pest or weed control at 16 g/ha [6, 15] | pest or weed control at 31 g/ha [6, 15] | pest or weed control at 31 g/ha [6, 16] | pest or weed control at 62 g/ha [6, 16]
75%: pest or weed control at 8 g/ha ([5]; post-emergence, Postemergence, scale 0 to 100, read-out: Plant response rating, Cupgrass, Woolly) | pest or weed control at 16 g/ha [5, 13] | pest or weed control at 31 g/ha [5, 13] | pest or weed control at 62 g/ha [6, 15]
80%: pest or weed control at 31 g/ha [2, 7] | pest or weed control at 62 g/ha [5, 13]
45%: pest or weed control at 62 g/ha ([1]; 62 g ai/ha, scale 0 to 100, 0 no effect, 100 complete control)
40%: pest or weed control at 31 g/ha ([1]; 31 g ai/ha, scale 0 to 100, 0 no effect, 100 complete control) | pest or weed control at 16 g/ha [6, 16]
0%: pest or weed control at 8 g/ha ([1]; 8 g ai/ha, scale 0 to 100 (0 no effect, 100 complete control)) | pest or weed control at 16 g/ha ([1]; 16 g ai/ha, scale 0 to 100, 0 no effect, 100 complete control) | pest or weed control at 8 g/ha ([2]; pre-emergence, Preemergence, scale 0 to 100 (0 no effect, 100 complete control), read-out: Plant response rating, Morningglory) | pest or weed control at 16 g/ha ([2]; pre-emergence, Preemergence, 16 g ai/ha, scale 0 to 100, 0 no effect, 100 complete control, read-out: Plant response rating, Morningglory) | pest or weed control at 8 g/ha ([4]; pre-emergence, Preemergence, scale 0 to 100 (0 no effect, 100 complete control), read-out: Plant response rating, Velvetleaf) | pest or weed control at 16 g/ha [4, 12] | pest or weed control at 8 g/ha ([5]; pre-emergence, Preemergence, scale 0 to 100 (0 no effect, 100 complete control), read-out: Plant response rating, Cupgrass, Woolly) | pest or weed control at 16 g/ha [5, 14] | pest or weed control at 31 g/ha [5, 14] | pest or weed control at 8 g/ha ([6]; pre-emergence, Preemergence, scale 0 to 100 (0 no effect, 100 complete control), read-out: Plant response rating, Nutsedge, Yellow)
50%: pest or weed control at 8 g/ha ([3]; pre-emergence, Preemergence, scale 0 to 100 (0 no effect, 100 complete control), read-out: Plant response rating, Pigweed)
5%: pest or weed control at 62 g/ha [5, 14]
55%: pest or weed control at 8 g/ha ([6]; post-emergence, Postemergence, scale 0 to 100, read-out: Plant response rating, Nutsedge, Yellow)
